Source: patent EP4644391A1, “NOVEL PHENYLQUINOLONE COMPOUND HAVING ANTIBACTERIAL AND ANTICANCER FUNCTIONS, AND PREPARATION THEREOF” (Alphamol Science Ltd (Shanghai), priority 2022, dated 2024)
Values after ≈ are worked out from the molar mass of the structure shown.

Assays:
Format in all cases: cell-based
[1] = tested on: Staphylococcus aureus ATCC43300; assay: Resistance test of bacteria against compounds (serial passage, 21 days); settings: for MIC: Staphylococcus aureus, ATCC43300, 504 h, read-out: MIC at the end of the experiment
Description: This example provides a resistance test of bacteria against compounds, and the specific experimental method is as follows. • 1. […] It was ensured that among the 6 final concentrations of the drug diluted into the wells, some were higher than the original MIC of the bacteria and some were lower than the original MIC of the bacteria. • 2. Preparation of bacterial liquid: 10 mL of culture medium was taken and added to a sterilized plate using a pipette, then 100 µL of the above-mentioned passaged bacterial liquid was added, and mixed well for later use. • 3. The above-mentioned diluted bacterial liquid was taken and added to a 96-well plate using a pipette, 180 µL per well, 3 wells per group, 6 groups in total. 20 µL of drug solution was added to each well (note: it is necessary to replace the pipette tip each time the drug is added), so that the final drug concentrations were 2 µg/mL, 1 µg/mL, 0.8 µg/mL, 0.4 µg/mL, 0.2 µg/mL, 0.1 µg/mL, respectively. The well with 200 µL of diluted bacterial liquid was used as the positive control well, and the well with 200 µL of culture medium was used as the negative control well.
The test object was Staphylococcus aureus (S. aureus). The specific results are shown in FIG1.

Hela = assay: In vitro anticancer activity test (MTT cell proliferation assay); settings: Homo sapiens
Description: (§1) The anticancer activity of the compounds was tested using an in vitro cancer cell tests. The specific test method is as follows: • 1. Cell recovery and culture method: the cryovial was taken out from the liquid nitrogen container firstly, soaked directly in 37°C warm water, and shaked from time to time to let it thaw as soon as possible. Then, the cryovial was transferred to a clean bench, and the lid was open. The cell suspension was taken into a centrifuge tube using a rubber-tipped dropper and more than 10 times the culture medium was added, mixed well, and centrifuged at 50g for 5 minutes. Then, the supernatant was discarded, complete culture medium containing 10% fetal bovine serum was added to resuspend the cells, the cells was counted, the cell density was adjusted, and then inoculated into a culture bottle. The culture bottle was placed in a cell culture incubator at 5% CO2 and 37°C. The complete culture medium was replaced once the next day and the culture was continued. • 2. Cell passaging method: adherent cells in the logarithmic growth phase were placed in a clean bench, the original culture medium was discarded, and washed three times with 1×PBS. An appropriate amount of 0.25% trypsin digestion solution was added to moisten the cells, and then the trypsin solution was aspirated. The cells were placed in a cell culture incubator at 5% CO2 and 37°C for digestion for a suitable time, and observed under a microscope. When 90% of the cells become round, the cells were moved immediately to the clean bench and complete culture medium was added to terminate digestion. Then, the cells were dislodged by pipetting up and down with a rubber-tipped dropper to single cells. The cells were counted, and the cell density was adjusted. The cells were inoculated into a suitable culture bottle or dish, added enough complete culture medium, and placed in a cell culture incubator at 5% CO2 and 37°C for static culture. For suspension cells in the logarithmic phase, the original culture medium was directly centrifuged at 50g for 5 minutes, the supernatant was discarded, and the cells were washed once with PBS and centrifuged. After discarding the supernatant, the complete culture medium was added and the cells were dispersed using a rubber-tipped dropper. The cells are counted, and the cell density was adjusted. The cells were inoculated into appropriate culture bottles or culture dishes, and sufficient complete culture medium was added, and the cells were cultured in a cell culture incubator at 5% CO2 and 37°C. • 3. Cell proliferation assay: cells in good state in logarithmic phase were taken and appropriate amount of the cells was inoculated into 96-well plates according to the cell passage treatment method, with each well containing 180 µL complete medium. After the cells growth was recovered and the number of cells in each well is 5000±500, a drug was added for treatment. After drug treatment during the experimental time, MTT solution with a final concentration of 0.5 mg/mL was added to each well, and placed in a cell culture incubator at 5% CO2 and 37°C to allow a fully reaction of MTT with cells. After 4 hours, the solution in the 96-well plate was discarded, 100 µL of DMSO was added, and shaked to dissolve the formazan precipitated at the bottom of the plate, and the absorbance value of samples was detected at a wavelength of 570 nm using a microplate reader. Calculation method of cell viability rate: Viability rate = A sample group÷A control group × 100% [formula] • 4. Cell photography step: cells in good state in logarithmic phase were taken and an appropriate amount of cells was inoculated into 96-well plates according to the cell passage treatment method, with each well containing 180 µL complete medium. After the cells growth was recovered and the number of cells in each well is 5000 ± 500, a drug was added for treatment. […]

[2] = tested on: human breast cancer cell MFM223; assay: as above; settings: MFM-223
Description: as §1

[3] = tested on: human non-small cell lung cancer cell A549; assay: as above
Description: as §1

[4] = tested on: human osteosarcoma cell U2-OS; assay: as above; settings: U2OS
Description: as §1

[5] = tested on: human acute T-lymphoblastic leukemia cell Jurkat; assay: as above
Description: (§2) The anticancer activity of the compounds was tested using an in vitro cancer cell tests. The specific test method is as follows: • 1. Cell recovery and culture method: the cryovial was taken out from the liquid nitrogen container firstly, soaked directly in 37°C warm water, and shaked from time to time to let it thaw as soon as possible. Then, the cryovial was transferred to a clean bench, and the lid was open. […] Then, the supernatant was discarded, complete culture medium containing 10% fetal bovine serum was added to resuspend the cells, the cells was counted, the cell density was adjusted, and then inoculated into a culture bottle. The culture bottle was placed in a cell culture incubator at 5% CO2 and 37°C. The complete culture medium was replaced once the next day and the culture was continued. • 2. Cell passaging method: adherent cells in the logarithmic growth phase were placed in a clean bench, the original culture medium was discarded, and washed three times with 1×PBS. An appropriate amount of 0.25% trypsin digestion solution was added to moisten the cells, and then the trypsin solution was aspirated. […] When 90% of the cells become round, the cells were moved immediately to the clean bench and complete culture medium was added to terminate digestion. Then, the cells were dislodged by pipetting up and down with a rubber-tipped dropper to single cells. The cells were counted, and the cell density was adjusted. The cells were inoculated into a suitable culture bottle or dish, added enough complete culture medium, and placed in a cell culture incubator at 5% CO2 and 37°C for static culture. For suspension cells in the logarithmic phase, the original culture medium was directly centrifuged at 50g for 5 minutes, the supernatant was discarded, and the cells were washed once with PBS and centrifuged. After discarding the supernatant, the complete culture medium was added and the cells were dispersed using a rubber-tipped dropper. The cells are counted, and the cell density was adjusted. The cells were inoculated into appropriate culture bottles or culture dishes, and sufficient complete culture medium was added, and the cells were cultured in a cell culture incubator at 5% CO2 and 37°C. • 3.

[6] = tested on: human breast ductal carcinoma cell T-47D; assay: as above; settings: T47D
Description: as §2

[7] = tested on: human ovarian adenocarcinoma cellSK-OV-3; assay: as above; settings: SK-OV-3
Description: as §2

SMILES	resistance of bacteria in the subsequent culture ([1]; Staphylococcus aureus ATCC43300, serial passage)	MIC [1] [µg/mL]	IC50 (Hela) [µM]	IC50 [2] [µM]	IC50 [3] [µM]	IC50 [4] [µM]	IC50 [5] [µM]	initial MIC compared with ciprofloxacin and vancomycin ([1]; Staphylococcus aureus ATCC43300, start of resistance test)	inhibition at 40 µM (Hela; average proliferation inhibition rate at the dosage of 40 µM) [%]	IC50 [6] [µM]	IC50 [7] [µM]
O=C(O)c1cn(C2CC2)c2cc(N3CCNCC3)c(F)cc2c1=O [Ciprofloxacin]	increased rapidly	128 (≈ 386 µM)	> 100	> 100	> 100	> 100	> 100	–	–	–	–
O=C(O)c1cn(C2CC2)c2c(Cl)c(-c3ccc(S(=O)(=O)NCCCC(F)(F)F)nc3)c(F)cc2c1=O [Example 29, 8-chloro-1-cyclopropyl-6-fluoro-4-oxo-7-(6-(N-(4,4,4-trifluorobutyl)sulfamoyl)pyridin-3-yl)-1,4-dihydroquinolin-3-carboxylic acid]	–	2 (≈ 3.65 µM)	1 to 10	1 to 10	1 to 10	1 to 10	1 to 10	superior	≥ 50	1 to 10	1 to 10
CCN(CC)CCNC(=O)c1c(C)[nH]c(/C=C2\C(=O)Nc3ccc(F)cc32)c1C [Sunitinib]	–	–	12 ± 2	10.2 ± 3.8	12.9 ± 10.2	4.7 ± 1.1	–	–	–	6.4 ± 1.7	12.2 ± 5.8
